Data on 15 compounds can be found in patent US9896441B2 (Lycera Corporation, priority 2014, dated 2018).

The target of test [1] is T1, Gal4-RORγ-LBD (Homo sapiens, UniProt P51449).
T1 construct: expressed in transfected cells
T1 sequence (P51449 269-508 limits assumed): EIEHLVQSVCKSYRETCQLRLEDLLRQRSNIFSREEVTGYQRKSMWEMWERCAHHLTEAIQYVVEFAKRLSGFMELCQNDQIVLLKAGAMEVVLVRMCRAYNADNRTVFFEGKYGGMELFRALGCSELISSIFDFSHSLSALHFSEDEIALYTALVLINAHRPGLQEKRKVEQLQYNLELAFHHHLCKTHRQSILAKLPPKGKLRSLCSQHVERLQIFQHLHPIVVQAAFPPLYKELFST
The experiment in a line: Gal4-RORγ Luciferase Reporter Assay in HEK-293T Cells. The class given is cell-based. The conditions noted are these: HEK-293 cells, luciferase reporter, in presence of ursolic acid; for Gal4-RORγ Assay Max Response: maximum response. In outline: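 HEK-293 cells were co-transfected with Gal4-RORγ-LBD and a Gal4-luciferase reporter, then exposed overnight at 37 °C to compounds with […] ursolic acid present (0.2% DMSO). Luminescence was read with One-Glo after 10 min at RT, untreated signal was set as 100, and Max Response was taken as the upper plateau of a 4-parameter logistic fit.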

In test [2] the target is T2, RORγ-LBD (Homo sapiens, UniProt P51449).
T2 construct: made in house; host or cells: SF9 cells (baculovirus); used as diluted lysate
T2 sequence (P51449 269-508 limits assumed): T1 sequence (P51449 269-508 limits assumed)
The experiment in a line: RORγ-Ligand Binding Domain (LBD) TR-FRET Assay.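 As to TR-FRET Assay Max Response: 665/615 nm signal ratio set to 100 without ursolic acid or test compound.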 The conditions noted are these: RORγ-LBD TR-FRET assay; for TR-FRET Assay Max Response: maximum response. The class given is biochemical. In outline:
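SF9 lysate containing His-RORγ-LBD, ~3 nM final; coactivator peptide biotin-SRC1 LXXLL, 200 nM final; ursolic acid 2 μM final; DMSO 1% final; Tris pH 7.0 buffer with KCl, EDTA, DTT, BSA. TR-FRET format.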

For `C/C(=C\c1ccc2c(c1)N(S(=O)(=O)c1cccc(C(F)(F)F)c1)C[C@H](OCC(=O)O)C2)c1c(F)cccc1Cl` [Example 173E, (R,E)-2-((7-(2-(2-chloro-6-fluorophenyl)prop-1-en-1-yl)-1-((3-(trifluoromethyl)-phenyl)sulfonyl)-1,2,3,4-tetrahydroquinolin-3-yl)oxy)acetic acid], in test [1], the EC50 was in the range of 500 to 5000 nM and the “Gal4-RORγ Assay Max Response” value is on record as “** (a value in the range of greater than 90 to 150)”. Further, in test [2], the EC50 is < 500 nM and the “TR-FRET Assay Max Response” value is “** (a value in the range of greater than 90 to 150)”.

With `C/C(=C\c1ccc2c(c1)N(S(=O)(=O)c1cccc(C(F)(F)F)c1)C[C@H](OC(C)(C)C(=O)O)C2)c1c(F)cccc1Cl` [Example 173F, (R,E)-2-((7-(2-(2-chloro-6-fluorophenyl)prop-1-en-1-yl)-1-((3-(trifluoromethyl)phenyl)-sulfonyl)-1,2,3,4-tetrahydroquinolin-3-yl)oxy)-2-methylpropanoic acid], in test [1], the concentration giving a half-maximal response (EC50) is < 500 nM and the “Gal4-RORγ Assay Max Response” value was “** (a value in the range of greater than 90 to 150)”. In test [2], the 50% effective concentration (EC50) was < 500 nM and the “TR-FRET Assay Max Response” value is “*** (a value in the range of greater than 150 to 200)”.

Consider `COC(=O)CCC1CC(S(=O)(=O)c2ccc(F)c(OC)c2)c2cc(OCc3c(F)cccc3Cl)ccc2O1` (stereo not drawn) [Example 178, Methyl 3-(6-((2-chloro-6-fluorobenzyl)oxy)-4-((4-fluoro-3-methoxyphenyl)sulfonyl)chroman-2-yl)propanoate], for which, in test [1], the 50% effective concentration (EC50) was in the range of 500 to 5000 nM and the “Gal4-RORγ Assay Max Response” value is on record as “** (a value in the range of greater than 90 to 150)”. In test [2], the half-maximal effective concentration (EC50) was < 500 nM and the “TR-FRET Assay Max Response” value is listed as “** (a value in the range of greater than 90 to 150)”.

In the case of `COc1cc(S(=O)(=O)C2CC(CCC(=O)O)Oc3ccc(OCc4c(F)cccc4Cl)cc32)ccc1F` (stereo not drawn) [Example 179, 3-(6-((2-Chloro-6-fluorobenzyl)oxy)-4-((4-fluoro-3-methoxyphenyl)sulfonyl)chroman-2-yl)propanoic acid], in test [1], the concentration giving a half-maximal response (EC50) was in the range of 500 to 5000 nM and the “Gal4-RORγ Assay Max Response” value is reported as “*** (a value in the range of greater than 150 to 200)”. Also, in test [2], the concentration giving a half-maximal response (EC50) was < 500 nM and the “TR-FRET Assay Max Response” value is listed as “** (a value in the range of greater than 90 to 150)”.

In the case of `C/C(=C\c1ccc2c(c1)C(S(=O)(=O)c1cccc(C(F)(F)F)c1)CC(CN)O2)c1c(F)cccc1Cl` (stereo not drawn) [Example 180, (E)-(6-(2-(2-Chloro-6-fluorophenyl)prop-1-en-1-yl)-4-((3-(trifluoromethyl)phenyl)sulfonyl)chroman-2-yl)methanamine], in test [1], the EC50 was in the range of 500 to 5000 nM and the “Gal4-RORγ Assay Max Response” value was “* (a value in the range of 30 to 90)”. For the same compound, in test [2], the 50% effective concentration (EC50) was < 500 nM and the “TR-FRET Assay Max Response” value is on record as “*** (a value in the range of greater than 150 to 200)”.

With `CC(=O)NCC1CC(S(=O)(=O)c2cccc(C(F)(F)F)c2)c2cc(/C=C(\C)c3c(F)cccc3Cl)ccc2O1` (stereo not drawn) [Example 181, (E)-N-((6-(2-(2-Chloro-6-fluorophenyl)prop-1-en-1-yl)-4-((3-(trifluoromethyl)phenyl)sulfonyl)chroman-2-yl)methyl)acetamide], in test [1], the 50% effective concentration (EC50) is < 500 nM and the “Gal4-RORγ Assay Max Response” value was “** (a value in the range of greater than 90 to 150)”. Further, in test [2], the EC50 was < 500 nM and the “TR-FRET Assay Max Response” value is listed as “** (a value in the range of greater than 90 to 150)”.

On to `C/C(=C\c1ccc2c(c1)C(S(=O)(=O)c1cccc(C(F)(F)F)c1)CC(CNC(=O)C(C)(C)O)O2)c1c(F)cccc1Cl` (stereo not drawn) [Example 182, (E)-N-((6-(2-(2-Chloro-6-fluorophenyl)prop-1-en-1-yl)-4-((3-(trifluoromethyl)phenyl)sulfonyl)chroman-2-yl)methyl)-2-hydroxy-2-methylpropanamide], for which, in test [1], the EC50 is < 500 nM and the “Gal4-RORγ Assay Max Response” value is on record as “** (a value in the range of greater than 90 to 150)”. Besides, in test [2], the 50% effective concentration (EC50) was < 500 nM and the “TR-FRET Assay Max Response” value is “*** (a value in the range of greater than 150 to 200)”.

Take `C/C(=C\c1ccc2c(c1)C(S(=O)(=O)c1cccc(C(F)(F)F)c1)CC(CNC(=O)C1CC1)O2)c1c(F)cccc1Cl` (stereo not drawn) [Example 183, (E)-N-((6-(2-(2-Chloro-6-fluorophenyl)prop-1-en-1-yl)-4-((3-(trifluoromethyl)phenyl)sulfonyl)chroman-2-yl)methyl)cyclopropanecarboxamide]: in test [1], the EC50 was in the range of 500 to 5000 nM and the “Gal4-RORγ Assay Max Response” value is given as “** (a value in the range of greater than 90 to 150)”. In test [2], the EC50 is < 500 nM and the “TR-FRET Assay Max Response” value is listed as “*** (a value in the range of greater than 150 to 200)”.

Regarding `C/C(=C\c1ccc2c(c1)C(S(=O)(=O)c1cccc(C(F)(F)F)c1)CC(CNS(C)(=O)=O)O2)c1c(F)cccc1Cl` (stereo not drawn) [Example 184, (E)-N-((6-(2-(2-Chloro-6-fluorophenyl)prop-1-en-1-yl)-4-((3-(trifluoromethyl)phenyl)sulfonyl)chroman-2-yl)methyl)methanesulfonamide], in test [1], the EC50 was < 500 nM and the “Gal4-RORγ Assay Max Response” value is on record as “** (a value in the range of greater than 90 to 150)”. Also, in test [2], the EC50 is < 500 nM and the “TR-FRET Assay Max Response” value is “*** (a value in the range of greater than 150 to 200)”.

With `COC(=O)CCC1CC(S(=O)(=O)c2cccc(C(F)(F)F)c2)c2cc(OCc3c(F)cccc3Cl)ccc2O1` (stereo not drawn) [Example 186B, methyl 3-(6-((2-chloro-6-fluorobenzyl)oxy)-4-((3-(trifluoromethyl)phenyl)sulfonyl)chroman-2-yl)propanoate], in test [1], the EC50 was < 500 nM and the “Gal4-RORγ Assay Max Response” value is “** (a value in the range of greater than 90 to 150)”. Also, in test [2], the EC50 was < 500 nM and the “TR-FRET Assay Max Response” value is given as “** (a value in the range of greater than 90 to 150)”.

For `COc1cc(S(=O)(=O)C2CC(CC(C)(C)C(=O)O)Oc3ccc(OCc4c(F)cccc4Cl)cc32)ccc1F` (stereo not drawn) [Example 186C, 3-(6-((2-chloro-6-fluorobenzyl)oxy)-4-((4-fluoro-3-methoxyphenyl)sulfonyl)chroman-2-yl)-2,2-dimethylpropanoic acid], in test [1], the half-maximal effective concentration (EC50) is > 10000 nM and the “Gal4-RORγ Assay Max Response” value is “** (a value in the range of greater than 90 to 150)”. For the same compound, in test [2], the 50% effective concentration (EC50) is < 500 nM and the “TR-FRET Assay Max Response” value was “*** (a value in the range of greater than 150 to 200)”.

On to `CC(C)(CC1CC(S(=O)(=O)c2cccc(C(F)(F)F)c2)c2cc(OCc3c(F)cccc3Cl)ccc2O1)C(=O)O` (stereo not drawn) [Example 186E, 3-(6-((2-chloro-6-fluorobenzyl)oxy)-4-((3-(trifluoromethyl)phenyl)-sulfonyl)chroman-2-yl)-2,2-dimethylpropanoic acid], for which, in test [1], the concentration for a half-maximal effect (EC50) was in the range of 500 to 5000 nM and the “Gal4-RORγ Assay Max Response” value was “** (a value in the range of greater than 90 to 150)”. Moreover, in test [2], the concentration for a half-maximal effect (EC50) is < 500 nM and the “TR-FRET Assay Max Response” value is listed as “** (a value in the range of greater than 90 to 150)”.

Consider `COC(=O)CCC1CC(S(=O)(=O)c2ccc(F)c(OC)c2)c2cc(/C=C(\C)c3c(F)cccc3Cl)ccc2O1` (stereo not drawn) [Example 186F, methyl (E)-3-(6-(2-(2-chloro-6-fluorophenyl)prop-1-en-1-yl)-4-((4-fluoro-3-methoxyphenyl)sulfonyl)chroman-2-yl)propanoate], for which, in test [1], the EC50 was < 500 nM and the “Gal4-RORγ Assay Max Response” value was “* (a value in the range of 30 to 90)”. In addition, in test [2], the EC50 is < 500 nM and the “TR-FRET Assay Max Response” value is on record as “*** (a value in the range of greater than 150 to 200)”.

`COc1cc(S(=O)(=O)C2CC(CCC(=O)O)Oc3ccc(/C=C(\C)c4c(F)cccc4Cl)cc32)ccc1F` (stereo not drawn) [Example 186G, (E)-3-(6-(2-(2-chloro-6-fluorophenyl)prop-1-en-1-yl)-4-((4-fluoro-3-methoxyphenyl)-sulfonyl)chroman-2-yl)propanoic acid]: in test [1], the EC50 was 500 to 5000 nM and the “Gal4-RORγ Assay Max Response” value was “** (a value in the range of greater than 90 to 150)”. Further, in test [2], the EC50 is < 500 nM and the “TR-FRET Assay Max Response” value was “** (a value in the range of greater than 90 to 150)”.

For the compound `COC(=O)CCC1CC(S(=O)(=O)c2cccc(C(F)(F)F)c2)c2cc(/C=C(\C)c3c(F)cccc3Cl)ccc2O1` (stereo not drawn) [Example 186H, methyl (E)-3-(6-(2-(2-chloro-6-fluorophenyl)prop-1-en-1-yl)-4-((3-(trifluoromethyl)phenyl)-sulfonyl)chroman-2-yl)propanoate], in test [1], the EC50 was < 500 nM and the “Gal4-RORγ Assay Max Response” value is reported as “** (a value in the range of greater than 90 to 150)”. In test [2], the EC50 is < 500 nM and the “TR-FRET Assay Max Response” value is given as “*** (a value in the range of greater than 150 to 200)”.
